Measured values published in the CheMixHub viscosity set.
Several values for one entry are separate records, joined by “and”; a condition that tells them apart may be missing. Equal entries are not always repeated.

Assay: xn = mol fraction of the nth substance listed

O=CO + NC=O
viscosity [mPa·s]
Settings | 298.15 K | 303.15 K | 308.15 K | 313.15 K
101 kPa, x2 = 0.1 | 1.946 | – | – | 1.429
101 kPa, x2 = 0.2005 | 2.316 | – | – | 1.685
101 kPa, x2 = 0.3015 | 2.557 | – | – | 1.849
101 kPa, x2 = 0.4 | 2.85 | – | – | 2.065
101 kPa, x2 = 0.5002 | 3.057 | – | – | 2.23
101 kPa, x2 = 0.6001 | 3.196 | – | – | 2.31
101 kPa, x2 = 0.7 | 3.286 | – | – | 2.342
101 kPa, x2 = 0.8001 | 3.314 | – | – | 2.355
101 kPa, x2 = 0.9 | 3.341 | – | – | 2.368
101.33 kPa, x2 = 0.0748 | 1.77 | 1.58 | 1.45 | 1.33
101.33 kPa, x2 = 0.1535 | 2.01 | 1.79 | 1.65 | 1.52
101.33 kPa, x2 = 0.2286 | 2.25 | 2 | 1.83 | 1.68
101.33 kPa, x2 = 0.3078 | 2.5 | 2.21 | 2.02 | 1.84
101.33 kPa, x2 = 0.3891 | 2.81 | 2.47 | 2.26 | 2.07
101.33 kPa, x2 = 0.4554 | 2.86 | 2.52 | 2.3 | 2.1
101.33 kPa, x2 = 0.5248 | 2.98 | 2.62 | 2.39 | 2.18
101.33 kPa, x2 = 0.6239 | 3.06 | 2.69 | 2.46 | 2.24
101.33 kPa, x2 = 0.6923 | 3.09 | 2.72 | 2.48 | 2.25
101.33 kPa, x2 = 0.7982 | 3.13 | 2.74 | 2.49 | 2.26
101.33 kPa, x2 = 0.8449 | 3.12 | 2.73 | 2.48 | 2.26
101.33 kPa, x2 = 0.9202 | 3.11 | 2.72 | 2.47 | 2.25

CC(Cl)(Cl)Cl + CC1CCCO1
298.15 K, 101.33 kPa
Settings | viscosity [mPa·s]
x1 = 0.099 | 0.5033
x1 = 0.2 | 0.5324
x1 = 0.299 | 0.5617
x1 = 0.398 | 0.5917
x1 = 0.5 | 0.6234
x1 = 0.6 | 0.655
x1 = 0.7 | 0.6873
x1 = 0.8 | 0.7209
x1 = 0.869 | 0.7447

CC(Cl)(Cl)Cl + C1CCCCC1
303.15 K, 101 kPa
Settings | viscosity [mPa·s]
x1 = 0.157 | 0.7897
x1 = 0.2218 | 0.776
x1 = 0.2876 | 0.7624
x1 = 0.3722 | 0.7462
x1 = 0.4768 | 0.7297
x1 = 0.543 | 0.7219
x1 = 0.679 | 0.713
x1 = 0.7525 | 0.7123
x1 = 0.8597 | 0.716
x1 = 0.9403 | 0.7201

CC(Cl)(Cl)Cl + CCC(C)=O
298.15 K, 101.33 kPa
Settings | viscosity [mPa·s]
x1 = 0.098 | 0.4094
x1 = 0.201 | 0.438
x1 = 0.299 | 0.4678
x1 = 0.398 | 0.5001
x1 = 0.499 | 0.5361
x1 = 0.6 | 0.5757
x1 = 0.7 | 0.6196
x1 = 0.8 | 0.669
x1 = 0.9 | 0.7256

CCCCCBr + Cc1cc(C)cc(C)c1
308.15 K, 101 kPa
Settings | viscosity [mPa·s]
x2 = 0.1098 | 0.6376
x2 = 0.2005 | 0.6292
x2 = 0.2983 | 0.6179
x2 = 0.4035 | 0.6093
x2 = 0.4979 | 0.6042
x2 = 0.6027 | 0.5945
x2 = 0.802 | 0.5739
x2 = 0.8481 | 0.5719
x2 = 0.9023 | 0.5699

O=[N+]([O-])[O-].O=[N+]([O-])[O-].[Ba+2] + O
viscosity [mPa·s], 100 kPa
Settings | x1 = 0.0003 | x1 = 0.001 | x1 = 0.003 | x1 = 0.004 | x1 = 0.006
298.15 K | 0.888 | 0.9055 | 0.9235 | 0.943 | 0.965
323.15 K | 0.5475 | 0.562 | 0.5775 | 0.59 | 0.603

CC(Cl)(Cl)Cl + COC(C)=O
Settings | viscosity
298.15 K, 101.33 kPa, x1 = 0.1 | 0.3907 mPa·s
298.15 K, 101.33 kPa, x1 = 0.101 | 0.3907 mPa·s
298.15 K, 101.33 kPa, x1 = 0.198 | 0.4156 mPa·s
298.15 K, 101.33 kPa, x1 = 0.199 | 0.4157 mPa·s
298.15 K, 101.33 kPa, x1 = 0.297 | 0.4438 mPa·s
298.15 K, 101.33 kPa, x1 = 0.3 | 0.445 mPa·s
298.15 K, 101.33 kPa, x1 = 0.398 | 0.4763 mPa·s
298.15 K, 101.33 kPa, x1 = 0.401 | 0.4774 mPa·s
298.15 K, 101.33 kPa, x1 = 0.499 | 0.513 mPa·s
298.15 K, 101.33 kPa, x1 = 0.5 | 0.5132 mPa·s and 0.5114 mPa·s
298.15 K, 101.33 kPa, x1 = 0.599 | 0.5525 mPa·s and 0.5545 mPa·s
298.15 K, 101.33 kPa, x1 = 0.699 | 0.6024 mPa·s
298.15 K, 101.33 kPa, x1 = 0.799 | 0.6574 mPa·s
298.15 K, 101.33 kPa, x1 = 0.901 | 0.7178 mPa·s
303.15 K, 101.3 kPa, x2 = 0.0993 | 0.6661 mPa·s
303.15 K, 101.3 kPa, x2 = 0.2042 | 0.6072 mPa·s
303.15 K, 101.3 kPa, x2 = 0.3008 | 0.5599 mPa·s
303.15 K, 101.3 kPa, x2 = 0.4008 | 0.5182 mPa·s
303.15 K, 101.3 kPa, x2 = 0.5039 | 0.4792 mPa·s
303.15 K, 101.3 kPa, x2 = 0.6038 | 0.4462 mPa·s
303.15 K, 101.3 kPa, x2 = 0.6968 | 0.4186 mPa·s
303.15 K, 101.3 kPa, x2 = 0.7992 | 0.3921 mPa·s
303.15 K, 101.3 kPa, x2 = 0.902 | 0.3668 mPa·s

O=CO + CC(=O)O
viscosity [mPa·s], 101 kPa
Settings | 298.15 K | 323.15 K
x1 = 0.0603 | 1.119 | 0.7729
x1 = 0.1 | 1.286 | –
x1 = 0.2 | 1.391 | –
x1 = 0.2363 | 1.278 | 0.8526
x1 = 0.3 | 1.463 | –
x1 = 0.4 | 1.506 | –
x1 = 0.4165 | 1.425 | 0.9226
x1 = 0.5 | 1.564 | –
x1 = 0.6 | 1.587 | –
x1 = 0.613 | 1.52 | 0.9694
x1 = 0.7 | 1.607 | –
x1 = 0.7416 | 1.565 | 0.9847
x1 = 0.8 | 1.607 | –
x1 = 0.8864 | 1.565 | 0.9893
x1 = 0.9 | 1.582 | –
x1 = 0.9578 | 1.56 | 0.9775

CC(Cl)(Cl)Cl + CC(=O)CC(C)C
298.15 K, 101.33 kPa
Settings | viscosity [mPa·s]
x2 = 0.0803 | 0.739
x2 = 0.1769 | 0.694
x2 = 0.2653 | 0.665
x2 = 0.3765 | 0.634
x2 = 0.4692 | 0.614
x2 = 0.5907 | 0.594
x2 = 0.7245 | 0.573
x2 = 0.8536 | 0.558

CCCC[N+](CCCC)(CCCC)CCCC.[OH-] + O
viscosity [mPa·s], 101 kPa
Settings | x1 = 0.00178 | x1 = 0.00364 | x1 = 0.007655 | x1 = 0.0121 | x1 = 0.01706 | x1 = 0.02262 | x1 = 0.0289
298.15 K | 1.232 | 1.332 | 1.432 | 2.03 | 2.632 | 3.779 | 4.942
303.15 K | 1.088 | 1.173 | 1.258 | 1.697 | 2.233 | 3.129 | 4.045
313.15 K | 0.8712 | 0.9342 | 0.9951 | 1.319 | 1.659 | 2.198 | 2.857
323.15 K | 0.716 | 0.7632 | 0.8107 | 1.04 | 1.289 | 1.692 | 2.115

CC/C(C)=N/O + CCC(C)=O
viscosity [mPa·s], 101.3 kPa
Settings | x1 = 0.0846 | x1 = 0.1716 | x1 = 0.2627 | x1 = 0.3557 | x1 = 0.4528 | x1 = 0.5541 | x1 = 0.6588 | x1 = 0.768 | x1 = 0.8817
293.15 K | 0.459 | 0.533 | 0.625 | 0.759 | 0.922 | 1.162 | 1.511 | 2.066 | 3.035
298.15 K | 0.438 | 0.508 | 0.592 | 0.714 | 0.86 | 1.073 | 1.368 | 1.836 | 2.619
303.15 K | 0.416 | 0.479 | 0.558 | 0.667 | 0.802 | 0.987 | 1.249 | 1.655 | 2.306
